Read-outs that look alike come from different tables or passages of the source.
What was measured:
[1] = system: cellular pERK in NCI-H1975 cells (EGFR/L858R-T790M); assay: pERK Potency Assay; format: cell-based; conditions: Homo sapiens, 1 hour incubation, Western blot, read-out: IC50 value, cellular pERK level
Source text: The purpose of this assay is to measure the ability of test compounds to inhibit SOS1 function in cells. SOS1 activates RAS proteins by catalyzing the conversion of RAS-GDP to RAS-GTP in response to receptor tyrosine kinase activation. Activation of RAS induces a sequence of cellular signaling events that results in increased phosphorylation of ERK at Threonine 202 and Tyrosine 204 (pERK). The procedure described below measured the level of cellular pERK in response to test compounds in NCI-H1975 cells (EGFR/L858R-T790M).
NCI-H1975 cells were grown and maintained using media and procedures recommended by the ATCC. On the day prior to compound addition, cells were plated in 24-well cell culture plates (0.9 ml/well) and grown overnight in a 37° C., 5% CO2 incubator. Test compounds were prepared with 3-fold serial dilutions in DMSO, with a top concentration of 10 mM. On the day of the assay, 100 uL of each test compound diluted at 1:100 in media was added to each well of cell culture plate with final concentrations of the compound spanning 0.5 nM to 10 uM. After the compound was added, the cells were incubated for 1 hour at 37° C., 5% CO2. Following incubation, culture medium was removed, and the cells were washed once with phosphate buffered saline and lysed with lysis buffer (20 mM Tris-HCl, pH 7.5, 150 mM NaCl, 1 mM EDTA, 1 mM EGTA, 0.8% NP-40 plus 2× protease and phosphatase inhibitors). Cellular pERK level was determined using the Western blot analysis and quantified with Liqor software. Signal from Western blot was plotted and IC50 values were determined by fitting a 4-parameter sigmoidal concentration response model.

[2] = biological target: T1, protein-protein interaction between SOS1 and KRAS-G12D (Homo sapiens, UniProt Q07889); assay: HTRF Based Protein-Protein Interaction Assay; format: binding
T1 construct: The purified GST-SOS1 catalytic domain (residues 564-1049) was first diluted in assay buffer; made in house; host or cells: E. coli BL21 (DE3) for SOS1; E. coli BL21 carrying a BirA plasmid for KRAS-G12D
T1 sequence (Q07889 564-1049): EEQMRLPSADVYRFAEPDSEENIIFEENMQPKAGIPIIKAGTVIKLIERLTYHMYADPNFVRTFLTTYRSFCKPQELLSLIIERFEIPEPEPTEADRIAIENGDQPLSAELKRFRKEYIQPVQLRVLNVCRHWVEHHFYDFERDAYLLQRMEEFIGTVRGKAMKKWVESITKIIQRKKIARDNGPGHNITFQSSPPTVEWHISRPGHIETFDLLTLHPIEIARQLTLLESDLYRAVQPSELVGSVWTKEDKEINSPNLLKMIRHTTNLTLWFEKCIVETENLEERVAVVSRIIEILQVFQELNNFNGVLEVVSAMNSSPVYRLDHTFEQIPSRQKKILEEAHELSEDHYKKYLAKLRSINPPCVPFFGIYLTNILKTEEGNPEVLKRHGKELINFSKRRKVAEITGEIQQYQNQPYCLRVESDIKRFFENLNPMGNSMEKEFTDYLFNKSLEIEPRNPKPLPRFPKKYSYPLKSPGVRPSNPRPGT
Source text: A KRAS-G12D and SOS1 binding/interaction assay was designed to measure the interaction between KRAS-G12D and SOS1 proteins. Utilizing HTRF (Homogeneous Time-Resolved Fluorescence) technology, the assay enabled simple and rapid characterization of compound and protein interaction in a high throughput format. This assay was used to examine potency of the compounds in inhibiting the protein-protein interaction between SOS1 and KRAS-G12D. […] Low IC50 values are indicative of high potency of the SOS1 inhibitor compound to disrupt SOS1 and Kras-G12D interaction.
Protein Expression and Purification. The corresponding gene sequence to human SOS1 (residues 564-1049, UniProt ID: Q07889; SEQ ID NO: 2) was synthesized and fused in frame with GST expression vector. After the desired sequence was confirmed, plasmid containing the sequence was transformed into the E. coli strain BL21 (DE3). Bacteria were growing at 37° C. in LB media containing 50 μg/ml Kanamycin to give OD600 of 0.6-0.8. Then 0.2 mM IPTG was added to induce protein expression for 16 hours at 17° C. Bacteria were harvested by centrifugation and stored at −80° C. Bacteria pellets were resuspended in lysis buffer (25 mM Tris-HCl, 500 mM NaCl, 2 mM DTT, 2.3% sucrose, 0.3% dextran-10, 1 mM PMSF, pH 7.5) and lysed using high-pressure homogenizer. The lysate was cleared by centrifugation for 30 minutes (12000 rpm at 4° C.). The supernatant containing GST-SOS1 fragment was purified sequentially through Glutathione column and gel filtration (Hiload 16/600 Superdex […] column, Cytiva). The purified GST-SOS1 fragment was confirmed by SDS-PAGE and stored in 25 mM Tris-HCl, 100 mM NaCl, 1 mM DTT, 2.3% sucrose, 0.3% dextran-10, pH 7.5 at −80° C.
Kras-G12D Protein Purification. The sequence corresponding to human KRAS-G12D (residues 1-169, UniProt P01116-2; SEQ ID NO: 1) was synthesized and fused in frame with His-AVI-TEV vector. The plasmid was transformed into the E. coli strain BL21 (containing a plasmid that can generate BirA enzyme). Bacteria were growing at 37° C. in TB media containing 100 μg/ml ampicillin and 50 μg/ml Kanamycin to give OD600 of 0.6-0.8. The 0.5 mM IPTG and 50 mg/l biotin were added to induce protein expression for 16 hours at 25° C. Bacteria were harvested by centrifugation and stored at −80° C. Bacteria pellets were re-suspended in lysis buffer (20 mM Tris-HCl, 500 mM NaCl, 5 mM MgCl2, 2 mM […], 5% glycerol, pH 8.0) and lysed using high-pressure homogenizer. The lysate was cleared by centrifugation for 30 minutes (12000 rpm at 4° C.). The supernatant containing HIS-AVI-TEV-KRAS-G12D fragment was purified sequentially through Ni-NTA column (SMART), Streptactin column (SMART), and gel filtration (Hiload 16/600 Superdex 75 pg, GE). The purified HIS-AVI-TEV-KRAS-G12D fragment was confirmed by SDS-PAGE and stored in 50 mM HEPES-NaOH, 100 mM NaCl, 1 mM DTT, 5 mM MgCl2, pH 7.5 at −80° C.
Protein-Protein Interaction Assay. An assay buffer containing 50 mM HEPES, pH 7.5, 50 mM NaCl, 0.01% Brij-35, 1 mM TCEP, 0.1% BSA was prepared, and concentration series of test compounds were generated spanning from 0.5 nM to 10 μM over 10 3-fold serial dilutions in a 384-well assay plate at a volume of 20 pL. The purified GST-SOS1 catalytic domain (residues 564-1049) was first diluted in assay buffer and 5 μl of SOS1 (final concentration 2.5 nM in assay mixture) was directly dispensed into compound plates. After a spin down at 1000 RPM for 30 seconds, the SOS1/compound mixture was incubated at 25° C. for 15 minutes to allow the reaction between SOS1 and the compound. A KRAS-G12D mixture was prepared by incubation of avi-tagged Kras-G12D (residue 1-169) and GDP in assay buffer containing 10 mM MgCl2 at room temperature for 10 minutes. A KRAS-G12D and GDP mixture (5 μL) was added to the assay plate (final KRAS-G12D was 100 nM and GDP was 10 uM). The plate was centrifuged at 1000 rpm for 30 sec and incubated at 25° C. for 60 minutes. […]

[3] = HTRF, GST-SOS1 2.5 nM, KRAS-G12D 100 nM, GDP 10 uM, read-out: IC50 value, inhibition of SOS1/KRAS-G12D protein-protein interaction

Compound	IC50 [1] [nM]	IC50 [2, 3] [nM]	IC50 [2] [nM]
C#C[C@@H](Nc1ncnc2c1cc(C1(NC(C)=O)CC3CCC(C1)O3)c(=O)n2C)c1cccc(C(F)F)c1F (stereo partly drawn) [Compound 61, N-(3(4-(((R)-1-3-(difluoromethyl)-2-fluorophenyl)prop-2-yn-1-yl)amino-8-methyl-7-oxo-7,8-dihydorpyrido[2,3-d]pyrimidin-6-yl)-8-oxabicyclo[3.2.1]octan-3-yl)acetamide]	100 to 500	–	–
C#C[C@@H](Nc1ncnc2c1cc(C1=CC3CCC(C1)N3C(C)=O)c(=O)n2C)c1cccc(C(F)F)c1F (some centres unmarked) [Compound 65]	< 100	–	< 100
[2H]C([2H])([2H])n1c(=O)c(C2(OC)CCN(C(C)=O)CC2)cc2c(N[C@H](C#C)c3cccc(C(F)(F)F)c3C)nc(C)nc21 [Compound 50, 6-(1-acetyl-4-methoxypiperidin-4-yl)-8-(^2H3)methyl-2-methyl-4-{[(1R)-1-[2-methyl-3-(trifluoromethyl)phenyl]prop-2-yn-1-yl]amino}-7H,8H-pyrido[2,3-d]pyrimidin-7-one]	< 100	100 to 200	–
C#C[C@@H](Nc1ncnc2c1cc(C1(O)CC3CCC(C1)N3C(C)=O)c(=O)n2C)c1cccc(C(F)F)c1F (some centres unmarked) [Compound 63]	100 to 500	–	–
C#C[C@@H](Nc1ncnc2c1cc(C1(NC(C)=O)CC3CCC(C1)N3C(C)=O)c(=O)n2C)c1cccc(C(F)F)c1F (some centres unmarked) [Compound 64]	100 to 500	–	–
C#C[C@@H](Nc1nc(C)nc2cc(=O)n(C3(C(F)F)CC3)cc12)c1cccc(C(F)F)c1F [Compound 24, (R)-4-((1-(3-(difluoromethyl)-2-fluorophenyl)prop-2-yn-1-yl)amino)-6-(1-(difluoromethyl)cyclopropyl)-2-methylpyrido[4,3-d]pyrimidin-7(6H)-one]	100 to 500	< 100	–
[2H]C([2H])([2H])n1c(=O)c(C2(F)CCN(C(C)=O)CC2)cc2c(N[C@H](C#C)c3cccc(C(F)(F)F)c3C)nc(C)nc21 [Compound 53]	< 100	100 to 200	–

The next lines start with results.

IC50 [1] [nM]	IC50 [2, 3] [nM]	Compound	IC50 [2] [nM]
100 to 500	–	[2H]C([2H])([2H])n1c(=O)c(C2=CCN(C(C)=O)CC2)cc2c(N[C@H](C#C)c3cccc(C(F)(F)F)c3C)nc(C)nc21 [Compound 52, 6-(1-acetyl-1,2,3,6-tetrahydropyridin-4-yl)-8-(^2H3)methyl-2-methyl-4-{[(1R)-1-[2-methyl-3-(trifluoromethyl)phenyl]prop-2-yn-1-yl]amino}-7H,8H-pyrido[2,3-d]pyrimidin-7-one]	–
100 to 500	< 100	C#C[C@@H](Nc1nc(C)nc2cc(=O)n(C3(C(F)F)CC3)cc12)c1cccc(C(F)F)c1C [Compound 1, (R)-4-((1-(3-(difluoromethyl)-2-methylphenyl)prop-2-yn-1-yl)amino)-6-(1-(difluoromethyl)cyclopropyl)-2-methylpyrido[4,3-d]pyrimidin-7(6H)-one]	–
< 100	100 to 200	C#C[C@@H](Nc1ncnc2c1cc(C1(F)CCN(C(C)=O)C1)c(=O)n2C)c1cccc(C(F)F)c1F (stereo partly drawn) [Compound 45, 6-(1-acetyl-3-fluoropyrrolidin-3-yl)-4-{[(1R)-1-[3-(difluoromethyl)-2-fluorophenyl]prop-2-yn-1-yl]amino}-8-methyl-7H,8H-pyrido[2,3-d]pyrimidin-7-one]	–
< 100	100 to 200	[2H]C([2H])([2H])n1c(=O)c(C2(O)CCN(C(C)=O)CC2)cc2c(N[C@H](C#C)c3cccc(C(F)(F)F)c3C)nc(C)nc21 [Compound 51, 6-(1-acetyl-4-hydroxypiperidin-4-yl)-8-(^2H3)methyl-2-methyl-4-{[(1R)-1-[2-methyl-3-(trifluoromethyl)phenyl]prop-2-yn-1-yl]amino}-7H,8H-pyrido[2,3-d]pyrimidin-7-one]	–
100 to 500	–	C#C[C@@H](Nc1ncnc2c1cc(C1=CC3CCC(C1)O3)c(=O)n2C)c1cccc(C(F)F)c1F (some centres unmarked) [Compound 62]	–
< 100	–	C#C[C@@H](Nc1ncnc2c1cc(C1(N)CCOCC1)c(=O)n2C)c1cccc(C(F)(F)F)c1C [Compound 60]	–

From US20220324862A1, “PYRIDOPYRIMIDINONE COMPOUNDS” (Acerand Therapeutics (USA) Limited, priority 2021, published 2022)
